For data set [1], the target named is T1, PDE9A (Homo sapiens, UniProt O76083). As to conditions: concentrations of up to 100 μM; cited from earlier work.
Data set [2] concerns the target T1, PDE9A. Description: PDE inhibition: recombinant PDE9A scintillation proximity assay. Further details: made in house; host or cells: Sf9 cells (pFASTBAC baculovirus expression system). The class given is biochemical. As to conditions: inhibiting effect on PDE9A, recombinant enzyme expressed in Sf9 cells, [8-3H]cGMP substrate. An excerpt: Recombinant PDE1C (GenBank/EMBL Accession Number: NM_005020, Loughney et al. J. Biol. Chem. 1996 271, 796-806), PDE2A (GenBank/EMBL Accession Number: NM_002599, Rosman et al. Gene 1997 191, 89-95), PDE3B (GenBank/EMBL Accession Number: NM_000922, Miki et al. Genomics 1996, 36, 476-485), PDE4B (GenBank/EMBL Accession Number: NM_002600, Obernolte et al. Gene. 1993, 129, 239-247), PDE5A (GenBank/EMBL Accession Number: NM_001083, Loughney et al. Gene 1998, 216, 139-147), PDE7B (GenBank/EMBL Accession Number: NM_018945, Hetman et al. Proc. Natl. Acad. Sci. U.S.A. 2000, 97, 472-476), PDE8A (GenBank/EMBL Accession Number: AF 056490, Fisher et al. Biochem. Biophys. Res. Commun. 1998 246, 570-577), PDE9A (Fisher et al., J. Biol. Chem., 1998, 273 (25): 15559-15564), E10A (GenBank/EMBL Accession Number: NM_06661, Fujishige et al. J Biol Chem. 1999, 274, 18438-45), PDE11A (GenBank/EMBL Accession Number: NM_016953, Fawcett et al. Proc. Natl. Acad. Sci. 2000, 97, 3702-3707) were expressed in Sf9 cells with the aid of the pFASTBAC baculovirus expression system (GibcoBRL).
The test substances are dissolved in 100% DMSO and serially diluted to determine their in vitro effect on PDE 9A. Typically, serial dilutions from 200 μM to 1.6 μM are prepared (resulting final concentrations in the assay: 4 μM to 0.032 μM). 2 μL portions of the diluted substance solutions are introduced into the wells of microtiter plates (Isoplate; Wallac Inc., Atlanta, Ga.). Then 50 μL of a dilution of the PDE9A preparation described above are added. The dilution of the PDE9A preparation is chosen so that less than 70% of the substrate is converted during the subsequent incubation (typical dilution: 1:10000; dilution buffer: 50 mM Tris/HCl pH 7.5, 8.3 mM MgCl2, 1.7 mM EDTA, 0.2% BSA). The substrate, [8-^3H] guanosine 3′,5′-cyclic phosphate (1 μCi/μL; Amersham Pharmacia Biotech., Piscataway, N.J.) is diluted 1:2000 with assay buffer (50 mM Tris/HCl pH 7.5, 8.3 mM MgCl2, 1.7 mM EDTA) to a concentration of 0.0005 μCi/μL. The enzyme reaction is finally started by adding 50 μL (0.025 μCi) of the diluted substrate. The assay mixtures are incubated at room temperature for 60 min and the reaction is stopped by adding 25 μl of a PDE9A inhibitor (e.g. the inhibitor from preparation example 1, final concentration 10 μM) dissolved in assay buffer. Immediately thereafter, 25 μL of a suspension containing 18 mg/mL Yttrium Scintillation Proximity Beads (Amersham Pharmacia Biotech., Piscataway, N.J.) are added. […] The plates are then measured for 30 s per well in a Microbeta scintillation counter (Wallac Inc., Atlanta, Ga.). IC50 values are determined from the graphical plot of the substance concentration versus the percentage inhibition. […]
A general note: In a scintillation proximity assay essentially only radioactivity close to the scintillant gives light.

A further data set deals with T2, Murine PDE9A (Mus musculus, UniProt O70628).
T2 sequence (O70628 1-534): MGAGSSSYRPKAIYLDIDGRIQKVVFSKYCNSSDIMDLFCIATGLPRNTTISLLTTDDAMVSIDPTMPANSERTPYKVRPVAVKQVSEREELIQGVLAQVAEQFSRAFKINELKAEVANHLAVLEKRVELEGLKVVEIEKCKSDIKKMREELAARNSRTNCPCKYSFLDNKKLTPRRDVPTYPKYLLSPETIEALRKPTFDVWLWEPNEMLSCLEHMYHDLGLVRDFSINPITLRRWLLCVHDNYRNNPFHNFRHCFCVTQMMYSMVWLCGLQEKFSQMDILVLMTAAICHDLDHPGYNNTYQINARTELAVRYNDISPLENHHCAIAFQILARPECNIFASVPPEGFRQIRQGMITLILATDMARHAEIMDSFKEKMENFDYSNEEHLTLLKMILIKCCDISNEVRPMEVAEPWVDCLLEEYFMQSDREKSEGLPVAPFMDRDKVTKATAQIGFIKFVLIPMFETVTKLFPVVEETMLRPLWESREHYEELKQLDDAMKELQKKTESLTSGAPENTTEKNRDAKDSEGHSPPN
As to conditions: concentrations below 200 μM; cited from earlier work.

Counter-ions that a name gives are not always drawn.

T1 sequence (O76083 whole entry): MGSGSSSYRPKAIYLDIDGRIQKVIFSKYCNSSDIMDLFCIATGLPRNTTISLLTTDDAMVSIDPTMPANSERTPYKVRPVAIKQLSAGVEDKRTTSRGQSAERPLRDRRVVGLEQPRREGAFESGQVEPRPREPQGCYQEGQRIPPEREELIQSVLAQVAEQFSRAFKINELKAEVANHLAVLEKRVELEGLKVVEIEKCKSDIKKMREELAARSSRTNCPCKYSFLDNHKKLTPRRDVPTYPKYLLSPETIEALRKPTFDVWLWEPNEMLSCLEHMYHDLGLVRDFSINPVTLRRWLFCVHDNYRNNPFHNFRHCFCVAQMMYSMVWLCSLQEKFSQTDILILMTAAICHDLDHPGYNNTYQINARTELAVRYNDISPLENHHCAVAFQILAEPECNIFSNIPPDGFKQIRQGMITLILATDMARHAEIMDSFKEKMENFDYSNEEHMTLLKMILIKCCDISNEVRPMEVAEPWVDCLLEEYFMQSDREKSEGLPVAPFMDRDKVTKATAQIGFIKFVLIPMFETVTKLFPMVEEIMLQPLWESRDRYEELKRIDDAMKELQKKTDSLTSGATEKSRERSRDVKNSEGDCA

`COc1ccc(C2CNC(=O)C2)cc1OC1CCCC1` (stereo not drawn) [rolipram]: at PDE9A [1], the “inhibition on the isolated enzyme” value was “no inhibition”.

As a reminder, the melting point is the temperature, or range, at which the solid turns liquid. `O=c1[nH]c(Cc2cccc(Cl)c2)nc2c1cnn2-c1ccccn1` (as salt: sodium) [Example 22, 6-(3-Chlorobenzyl)-1-(2-pyridinyl)-1,5-dihydro-4H-pyrazolo[3,4-d]pyrimidin-4-one] had a melting point of 230 °C.

One may read the IC50 as the concentration that gives 50% inhibition. For `O=c1[nH]c(Cc2cccc(Cl)c2)nc2c1cnn2-c1c(Cl)cccc1Cl` [Example 4, 6-(3-Chlorobenzyl)-1-(2,6-dichlorophenyl)-1,5-dihydropyrazolo[3,4-d]pyrimidin-4-one], the concentration for half-maximal inhibition (IC50) at PDE9A [2] stood at 64 nM.

Take `Cc1ccccc1-n1ncc2c(=O)[nH]c(Cc3ccccc3Br)nc21` [Example 9, 6-(2-Bromobenzyl)-1-(2-methylphenyl)-1,5-dihydropyrazolo[3,4-d]pyrimidin-4-one]: the half-maximal inhibitory concentration (IC50) at PDE9A [2] was < 30 nM.

`COc1ccccc1-n1ncc2c(=O)[nH]c(Cc3cccc(Cl)c3)nc21` (as salt: sodium) [Example 23, 6-(3-Chlorobenzyl)-1-(2-methoxyphenyl)-1,5-dihydro-4H-pyrazolo[3,4-d]pyrimidin-4-one] registered a melting point of 196 °C.

As to `O=c1[nH]c(Cc2cccc(Cl)c2)nc2c1cnn2-c1ccccc1C(F)(F)F` (as salt: sodium) [Example 19, 6-(3-Chlorobenzyl)-1-(2-trifluoromethylphenyl)-1,5-dihydro-4H-pyrazolo[3,4-d]pyrimidin-4-one], the melting point is 152 °C.

For the molecule `CCOC(=O)C1=C[C@]2(CC)CCCN3CCc4c(n1c1ccccc41)[C@@H]32` [vinpocetine], the “inhibition on the isolated enzyme” value on PDE9A [1] is recorded as “no inhibition”.

For the molecule `Cc1ccccc1-n1ncc2c(=O)[nH]c(Cc3ccccn3)nc21` (as salt: sodium) [Example 17, 1-(2-Methylphenyl)-6-(2-pyridinylmethyl)-1,5-dihydro-4H-pyrazolo[3,4-d]pyrimidin-4-one], the melting point came to 162 °C.

Take `O=c1[nH]c(Cc2cccc(Cl)c2)nc2c1cnn2-c1ccccc1Cl` [Example 21, 6-(3-Chlorobenzyl)-1-(2-chlorophenyl)-1,5-dihydro-4H-pyrazolo[3,4-d]pyrimidin-4-one]: the IC50 on PDE9A [2] is < 30 nM.

As for `Cc1ccccc1-n1ncc2c(=O)[nH]c(Cc3cccc(Cl)c3)nc21` (as salt: sodium) [Example 16, 6-(3-Chlorobenzyl)-1-(2-methylphenyl)-1,5-dihydro-4H-pyrazolo[3,4-d]pyrimidin-4-one], the melting point amounted to 215 °C.

Regarding `CC(=O)Nc1ccc(-c2c[nH]c(=O)cn2)cc1` [SKF94120], the “inhibition on the isolated enzyme” value on PDE9A [1] is “no inhibition”.

The molecule `CCc1ccccc1-n1ncc2c(=O)[nH]c(Cc3cccc(Cl)c3)nc21` (as salt: sodium) [Example 18, 6-(3-Chlorobenzyl)-1-(2-ethylphenyl)-1,5-dihydro-4H-pyrazolo[3,4-d]pyrimidin-4-one] yielded a melting point of 208 °C.

Take `O=c1[nH]c(Cc2cccc(Cl)c2)nc2c1cnn2-c1ccccc1F` (as salt: sodium) [Example 20, 6-(3-Chlorobenzyl)-1-(2-fluorophenyl)-1,5-dihydro-4H-pyrazolo[3,4-d]pyrimidin-4-one]: the melting point was found to be 197 °C.

`O=c1[nH]c(Cc2cccc(Cl)c2)nc2c1cnn2-c1ccccc1Cl` (as salt: sodium) [Example 21, 6-(3-Chlorobenzyl)-1-(2-chlorophenyl)-1,5-dihydro-4H-pyrazolo[3,4-d]pyrimidin-4-one] gave a melting point of 188 °C.

In the case of `OCCN(CCO)c1nc(N2CCCCC2)c2nc(N(CCO)CCO)nc(N3CCCCC3)c2n1` [dipyridamole], the “inhibition on the isolated enzyme” value at PDE9A [1] was “no inhibition”.

Take `CC(C)Cn1c(=O)n(C)c(=O)c2[nH]cnc21` [IBMX]: the “inhibition of murine PDE9A” value at Murine PDE9A is on record as “not inhibited”. The “inhibition on the isolated enzyme” value at PDE9A [1] was “no inhibition”.

Turning to `Cc1cccc(-n2ncc3c(=O)[nH]c(Cc4cccc(Cl)c4)nc32)c1C` [Example 2, 6-(3-Chlorobenzyl)-1-(2,3-dimethylphenyl)-1,5-dihydropyrazolo[3,4-d]pyrimidin-4-one], at PDE9A [2], the IC50 was determined as 50 nM.

The record behind these values is patent US8809348B2, “6-arylmethyl substituted pyrazolo[3,4-d]pyrimidines” (Boehringer Ingelheim International GmbH, priority 2003, dated 2014).
